Data: patent US12084472B2 (Ardelyx, Inc., priority 2015, dated 2024)
Marks after values point to notes of the source that are not given here.

Tests used:
[1] = tested on: mice with 5-FU-induced diarrhea; assay: Chemotherapy-induced diarrhea model (5-FU), fecal form score; assay type: in vivo, CD-1 female mice; conditions: 5-FU 60 mg/kg IP days 5-11; I-388 30 mg/kg PO BID, teduglutide 0.4 mg/kg SQ BID, days 1-13; FFS days 11-13 summed; FIG. 1
Procedure: Four groups of adult CD-1 female mice on regular chow were dosed with the following BID starting on Day 1: 2 groups, vehicle (10% hydroxypropyl-β-cyclodextrin in PBS; PO; 5 mL/kg); 1 group, Compound I-388 at 30 mg/kg in vehicle (PO; 5 mL/kg); and 1 group, teduglutide 0.4 mg/kg (American Peptide, Sunnyvale, CA; reconstituted in PBS; SQ; 10 mL/kg) 0.4 mg/kg SQ. On Days 5-11, the groups of mice were also given QD IP injections (5 mL/kg) of the following treatments: first vehicle group, PBS and remaining groups, 5-fluorouracil (5-FU) 60 mg/kg (Fresenius Kabi USA, Lake Zurich, IL) diluted in PBS to induce mucositis with diarrhea. Body weight was measured throughout the study and fecal form was scored on Day 11-13 of the study according to the following scale: 0, normal stool; 1, slightly wet and soft stool; 2, wet and unformed stool with moderate perianal staining of the coat; 3, watery stool with severe perianal staining of the coat.
All mice were dosed on day 1-13 with vehicle, with 0.4 mg/kg of teduglutide, or with 30 mg/kg of compound I-388 (vehicle and Cmpd. I-388: PO, […] and teduglutide: SQ, 10 mL/kg). PBS or 5-FU at 60 mg/kg (used to induce mucositis and diarrhea) were administered interperionally (IP; 5 mL/kg) on days 5-11.

human TGR5 = target: T1, human TGR5 (Homo sapiens, UniProt Q8TDU6); assay: Cell-based TGR5 assay (cAMP generation, HTRF); conditions: HEK293 cells stably transfected with human TGR5; cAMP by HTRF; 30 minutes at 37° C.; read-out: pEC50 Human TGR5 (converted)
T1 construct: expressed in transfected cells; host or cells: HEK293
T1 sequence (Q8TDU6 1-330): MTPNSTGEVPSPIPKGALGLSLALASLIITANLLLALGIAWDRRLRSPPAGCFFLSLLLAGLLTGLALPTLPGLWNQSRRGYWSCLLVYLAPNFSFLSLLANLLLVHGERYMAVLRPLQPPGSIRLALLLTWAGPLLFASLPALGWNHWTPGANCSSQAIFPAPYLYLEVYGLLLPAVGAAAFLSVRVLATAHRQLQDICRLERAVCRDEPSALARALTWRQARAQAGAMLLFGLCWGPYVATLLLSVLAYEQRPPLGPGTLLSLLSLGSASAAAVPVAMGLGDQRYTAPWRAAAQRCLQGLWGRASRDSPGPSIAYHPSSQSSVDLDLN
Outline: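 First, compounds in 3-fold serial dilution were placed in HBSS with 10 mM HEPES pH 7.4 and 0.5 mM IBMX. Next, human TGR5-expressing HEK293 cells were added and incubated 30 min at 37° C. Finally, cAMP was detected by HTRF and pEC50 derived by logistic fitting.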

[2] = tested on: small intestine and colon of mice; assay: Small intestine and colon weight, villus/crypt length, colon crypt depth, plasma GLP-1 and GLP-2 in mice; assay type: in vivo, CD-1 female mice; conditions: ten consecutive days
Procedure: Tedulgutide (a GLP-2 receptor agonist; American Peptide, catalog #304076, supplied by Bachem) 50 μg/kg in […] was injected SC in a control group BID during the same period. […] The small intestine and colon were collected, flushed with cold PBS to remove contests, patted dry, weighed and further trimmed for histological analysis. Morphometric analysis was performed to determine the villus/crypt length in the proximal jejunum and distal ileum and crypt depth (length) in the proximal colon.
Data for each group are presented as mean±SEM. Statistical analyses were performed using one-way ANOVA followed by Holm-Sidak's multiple comparisons test. Statistical significance compared to vehicle (WD) is marked as *, P<0.05; **, P<0.01, ***, P<0.001, and ****, P<0.0001.

small intestine transit = assay: Intestinal motility independent of gastric emptying (carmine red dye front); assay type: in vivo, C57BL/6 male mice; conditions: I-389 30 mg/kg PO; dye infused via duodenal catheter 1 h later; 15 min; vs vehicle; FIG. 6
Procedure: Seven-eight week old C57BL/6 male mice were acclimated for four days. Mice were then divided into 2 groups and fasted for 2-1/2 h, followed by a PO dose (10 mL/kg) of vehicle (10% 2-hydroxypropyl-β-cyclodextrin [HPCD] in 10 mM PBS containing 0.1% tween 80; HPCD/tween 80) or I-389 30 mg/kg. One hour later, carmine red (6% in sterile water; 100 μL/mouse) dye was infused via the duodenal catheter and mice were euthanised fifteen min after that. The entire length of the small intestine and the distance from the stomach to the dye front in the small intestine was measured and used to calculate the percentage of the small intestine the dye front had travelled during the 15 min timeframe.

[3] = tested on: Western diet (WD)-fed mice; assay: Mouse model of NAFLD and mild diabetes, Western diet (WD)-fed mice: glucose, insulin, liver lipids, GLP levels; assay type: in vivo, C57BL/6 male mice
Procedure: Seven week old C57BL/6 male mice were housed 5/cage. Two cages of mice were put on normal chow (Harlan Teklad 2018), and the remaining cages of mice were put on WD (Harlan Teklad, TD.88137, […]/0.2% cholesterol) to induce NAFLD. After 10 weeks, mice were weighed and fasted for 4 h. Blood was collected to measure fasting glucose levels, processed to plasma for measurement of insulin, triglycerides and total cholesterol. This process was repeated on Day 29 of treatment. Based on body weight and fasted glucose and insulin levels, mice were divided into 5 treatment groups (n=10/group), Table 20. […] Mice were weighed twice weekly throughout the study. On the last day of the study (Day 30, 8 hours after food removal), mice were euthanized. Blood was collected in tubes with inhibitors to block DPP-4 activity and processed to plasma for measurement of liver enzymes and GLP levels using an Ace Alera clinical analyzer and the Multi-Array Assay System from Meso Scale Discovery, respectively. The entire liver was collected, weighed, and a sample was taken and weighed for measurement of triglycerides and total cholesterol.
Data for each group are presented as mean±SEM. Statistical analyses were performed using one-way ANOVA followed by Holm-Sidak's multiple comparisons test. For GLP levels, <statistical significance compared to vehicle (WD) is marked as *, P<0.05; **, P<0.01, ***, P<0.001, and ****, P<0.0001; of linagliptin (WD) versus I-389 alone (WD) or linaglptin+I-389 (WD) is marked as †, P<0.05; ††, P<0.01, of †††, P<0.001, and ††††, P<0.0001; and of I-389 (WD) versus linagliptin (WD)+I-389 (WD) is marked as ^, P<0.05; ^ ^P<0.01, ^ ^^P, P<0.001, and ^ ^^^, P<0.0001. For the remaining parameters, statistical significance compared to vehicle (WD) is marked as *, P<0.05; **, P<0.01, ***, P<0.001, and ****, P<0.0001.

Row | Structure (SMILES) | cumulative fecal form score (FFS) [1] | EC50 (human TGR5) [nM] | increase of colon weight ([2]; teduglutide 50 μg/kg SC BID (trend), I-389 100 mg/kg PO BID co-dosed with sitagliptin 3.6 g/L in drinking water, FIG. 7, FIG. 8) [%] | increase of small intestine weight ([2]; teduglutide 50 μg/kg SC BID, FIG. 7) [%] | increase of villus-crypt length in the proximal jejunum ([2]; teduglutide 50 μg/kg SC BID, I-389 100 mg/kg PO BID + sitagliptin, FIG. 9) [%] | increase of villus-crypt length in the distal ileum ([2]; teduglutide 50 μg/kg SC BID, I-389 100 mg/kg PO BID + sitagliptin, FIG. 10) [%] | percentage the carmine red dye front travelled in the small intestine (small intestine transit) | active GLP-1 levels / release ([3]; WD-fed mice, Day 30 plasma, I-389 30 mg/kg, linagliptin 10 mg/kg, FIG. 14) | total GLP-1 levels ([3]; WD-fed mice, Day 30 plasma, I-389 30 mg/kg, linagliptin 10 mg/kg, FIG. 15) | body weight ([3]; WD-fed mice, data not shown) | liver total cholesterol levels (in words) ([3]; WD-fed mice, vs vehicle (WD)) | liver triglycerides (in words) ([3]; WD-fed mice, vs vehicle (WD)) | Liver weight ([3]; Western diet, liraglutide 0.4 mg/kg BID SQ, I-389 30 mg/kg BID PO, linagliptin 10 mg/kg QD PO, mean±SEM, vehicle WD 2.13 ± 0.14) | 4-h fasted insulin ([3]; Western diet, liraglutide 0.4 mg/kg BID SQ, I-389 30 mg/kg BID PO, linagliptin 10 mg/kg QD PO, mean±SEM, vehicle WD 2.3 ± 0.3) | Hepatic cholesterol ([3]; Western diet, liraglutide 0.4 mg/kg BID SQ, I-389 30 mg/kg BID PO, linagliptin 10 mg/kg QD PO, mean±SEM, vehicle WD 8.56 ± 0.25) | Hepatic triglycerides ([3]; Western diet, liraglutide 0.4 mg/kg BID SQ, I-389 30 mg/kg BID PO, linagliptin 10 mg/kg QD PO, mean±SEM, vehicle WD 145.40 ± 14.80) | 4-h fasted glucose ([3]; Western diet, liraglutide 0.4 mg/kg BID SQ, I-389 30 mg/kg BID PO, linagliptin 10 mg/kg QD PO, mean±SEM, vehicle WD 239 ± 13)
1 | O=C(NCCCCNS(=O)(=O)c1ccc(Cl)c(COC2(c3cnccc3-c3ccccc3OC3CC3)CC2)c1)[C@@H](O)[C@@H](O)[C@H](O)[C@@H](O)CO [Compound I-388, (2S,3S,4R,5S)-N-(4-[[4-chloro-3-([1-[4-(2-cyclopropoxyphenyl)pyridin-3-yl]cyclopropoxy]methyl)benzene]sulfonamido]butyl)-2,3,4,5,6-pentahydroxyhexanamide] | significantly improved | < 100 |  |  |  |  |  |  |  |  |  |  |  |  |  |  | 
2 | CC[C@H](C)[C@H](NC(=O)[C@H](Cc1ccccc1)NC(=O)[C@H](CC(=O)O)NC(=O)[C@H](CCCNC(=N)N)NC(=O)[C@H](C)NC(=O)[C@H](C)NC(=O)[C@H](CC(C)C)NC(=O)[C@H](CC(N)=O)NC(=O)[C@H](CC(=O)O)NC(=O)[C@H](CC(C)C)NC(=O)[C@@H](NC(=O)[C@@H](NC(=O)[C@H](CC(N)=O)NC(=O)[C@H](CCSC)NC(=O)[C@H](CCC(=O)O)NC(=O)[C@H](CC(=O)O)NC(=O)[C@H](CO)NC(=O)[C@H](Cc1ccccc1)NC(=O)[C@H](CO)NC(=O)CNC(=O)[C@H](CC(=O)O)NC(=O)CNC(=O)[C@@H](N)Cc1c[nH]cn1)[C@@H](C)O)[C@@H](C)CC)C(=O)N[C@@H](CC(N)=O)C(=O)N[C@@H](Cc1c[nH]c2ccccc12)C(=O)N[C@@H](CC(C)C)C(=O)N[C@H](C(=O)N[C@@H](CCC(N)=O)C(=O)N[C@H](C(=O)N[C@@H](CCCCN)C(=O)N[C@H](C(=O)N[C@H](C(=O)N[C@@H](CC(=O)O)C(=O)O)[C@@H](C)O)[C@@H](C)CC)[C@@H](C)O)[C@@H](C)CC [teduglutide] | significantly improved |  | 14 | 48 | 55 | 30 |  |  |  |  |  |  |  |  |  |  | 
3 | CN(CCCCNC(=O)N[C@@H](CO)[C@@H](O)[C@H](O)[C@H](O)CO)S(=O)(=O)c1ccc(Cl)c(COC2(c3cnccc3-c3ccccc3OC3CC3)CC2)c1 [Compound I-389, 1-(4-[N-methyl[4-chloro-3-([1-[4-(2-cyclopropoxyphenyl)pyridin-3-yl]cyclopropoxy]methyl)benzene]sulfonamido]butyl)-3-[(2S,3R,4S,5R)-1,3,4,5,6-pentahydroxyhexan-2-yl]urea] |  | < 100 |  |  |  |  | statistically significant increase | effective at inducing active GLP-1 release | highly elevated | did not significantly affect | lowered | lowered | 1.77 ± 0.09* g | 1.6 ± 0.2* ng/mL | 7.24 ± 0.41** mg/g | 87.82 ± 13.77*** mg/g | 178 ± 7** mg/dL
